Data taken from patent publication US8664238B2, “Indenoisoquinolinone derivatives, manufacturing method and medical use thereof” (China Pharmaceutical University, priority 2009, dated 2014).

These molecules were tested on Human breast cancer cells MCF-7 (assay: Proliferation of MCF-7 breast cancer cells (MTT detection method)). Details: MCF-7 cells, 48 h incubation with drug, read-out: IC50, inhibition on the proliferation of MCF-7 breast cancer cells.
Assay type: cell-based
Procedure: The method described in Journal of Medicinal Chemistry. 1997. 40. 1407-1416 has been used and slightly modified. Human breast cancer cells MCF-7, purchased from Nanjing Keygen Biotechnology Inc. MCF-7 cells were incubated in RPMI1640 medium (containing 10% calf serum, 100 U/ml of penicillin and 100 μg/ml of streptomycin) in a 37° C. incubator with 5% CO2. The medium was replaced once about two days and cells were subcultured once every 3-4 days. In the subculturing, the old medium was discarded and the culture was washed twice with D-hanks (for washing off the phenol red in the medium to eliminate the influence of phenol red on the digestion effect of trypsin). Then, a small amount of 0.25% trypsin (25 mg trypsin, 100 ml D-hanks) was added and the contents were paved in the bottle bottom smoothly. […] Trypsin was discarded and the cells were washed with D-hanks, then fresh medium was added and mixed by blowing. The cultures were put into new culture flasks and cultured continuously. After cell count, a small volume of cell suspension was taken and mixed with 0.4% trypan blue in the same volume by blowing with a straw. A little mixture (15 μl-20 μl) was taken and dropped into the interspace between the counting plate and the coverslip without bubbles. […] Dead cells can be stained by trypan blue, while living cells cannot. The counting plate was moved so as to see the counting squares, then unstained cells in four diagonal grids were counted. The cells counted include those on the right line and the top line but not those on the bottom line and the left line. The number of cells/ml=the number of cells in 25% grid×10^4. […] The control group was that in which the anticancer drug was replaced with the same volume of medium and the blank group is 200 μl medium. After incubating for 48 h, 5 mg/ml MTT was added in 20 μl per well and the cultures were further incubated for 4 h. Then, the liquid was suck out carefully and 150 μl of DMSO was added per well. OD values of all wells were measured in 570 nm and the inhibition rate on the cell proliferation and values of IC50 were calculated.
In the case of `CN(C)CCOc1ccc(-n2c3c(c4ccccc4c2=O)C(=O)c2ccccc2-3)cc1` [Ic, 6-(4-(2-dimethylaminoethoxy)phenyl)-5H-indeno[1,2-c]isoquinoline-5,11(6H)-diketone], the IC50 is reported as 2.13 µM. Molecule `O=C1c2ccccc2-c2c1c1ccccc1c(=O)n2-c1ccc(OCCN2CCCCC2)cc1` [Ia, 6-(4-(2-piperidinylethoxy)phenyl)-5H-indeno[1,2-c]isoquinoline-5,11(6H)-diketone] has an IC50 of 9.55 µM. In the case of `O=C1c2ccccc2-c2c1c1ccccc1c(=O)n2-c1ccc(OCCCN2CCCC2)cc1` [Ij, 6-(4-(3-pyrrolidinylpropoxy)phenyl)-5H-indeno[1,2-c]isoquinoline-5,11(6H)-diketone], the IC50 is reported as 24.7 µM. Molecule `CCN(CC)CCCOc1ccc(-n2c3c(c4ccccc4c2=O)C(=O)c2ccccc2-3)cc1` [If, 6-(4-(3-diethylaminopropoxy)phenyl)-5H-indeno[1,2-c]isoquinoline-5,11(6H)-diketone] has an IC50 of 8.52 µM. `O=C1c2ccccc2-c2c1c1ccccc1c(=O)n2-c1ccc(OCCCN2CCCCC2)cc1` [Ib, 6-(4-(3-piperidinylpropoxy)phenyl)-5H-indeno[1,2-c]isoquinoline-5,11(6H)-diketone] showed an IC50 of 10.9 µM. With `CC(C)N(CCOc1ccc(-n2c3c(c4ccccc4c2=O)C(=O)c2ccccc2-3)cc1)C(C)C` [Ik, 6-(4-(2-diisopropylaminoethoxy)phenyl)-5H-indeno[1,2-c]isoquinoline-5,11(6H)-diketone] the IC50 was 79.9 µM. `CCN(CC)CCOc1ccc(-n2c3c(c4ccccc4c2=O)C(=O)c2ccccc2-3)cc1` [Ie, 6-(4-(2-diethylaminoethoxy)phenyl)-5H-indeno[1,2-c]isoquinoline-5,11(6H)-diketone] was tested, and the IC50 was 7.8 µM. `CN(C)CCCOc1ccc(-n2c3c(c4ccccc4c2=O)C(=O)c2ccccc2-3)cc1` [Id, 6-(4-(3-dimethylaminopropoxy)phenyl)-5H-indeno[1,2-c]isoquinoline-5,11(6H)-diketone] gave an IC50 of 27.9 µM. `CN1CCN(CCCOc2ccc(-n3c4c(c5ccccc5c3=O)C(=O)c3ccccc3-4)cc2)CC1` [Ih, 6-(4-(3-(4-methylpiperazinyl)propoxy)phenyl)-5H-indeno[1,2-c]isoquinoline-5,11(6H)-diketone] was tested, and the IC50 was 5.89 µM. Work on `O=C1c2ccccc2-c2c1c1ccccc1c(=O)n2-c1ccc(OCCN2CCCC2)cc1` [Ii, 6-(4-(2-pyrrolidinylethoxy)phenyl)-5H-indeno[1,2-c]isoquinoline-5,11(6H)-diketone] yielded an IC50 of 11.3 µM. In the case of `CN1CCN(CCOc2ccc(-n3c4c(c5ccccc5c3=O)C(=O)c3ccccc3-4)cc2)CC1` [Ig, 6-(4-(2-(4-methylpiperazinyl)ethoxy)phenyl)-5H-indeno[1,2-c]isoquinoline-5,11(6H)-diketone], the IC50 is reported as 5.82 µM.

Each molecule was assayed on H460 human lung cancer cells (assay: Proliferation experiment of H460 human lung cancer cells). Details: not given.
Assay type: cell-based
Procedure: Meanwhile, the proliferation experiment of H460 human lung cancer cells was also conducted.
For `CCN(CC)CCCOc1ccc(-n2c3c(c4ccccc4c2=O)C(=O)c2ccccc2-3)cc1` [If, 6-(4-(3-diethylaminopropoxy)phenyl)-5H-indeno[1,2-c]isoquinoline-5,11(6H)-diketone], the IC50 was 0.63 µM.
